In US4327097A, “Novel penicillins” (Toyama Chemical Co., Ltd., priority 1974, dated 1982):
In brackets after ≈: the same amount, converted by molar mass.

Assays:
[1] = system: Proteus vulgaris 3027; assay: MIC, plate method, standard strains; assay type: cell-based; details: Table 3, standard strain; unit assumed
Procedure, shortened: (§1)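 Plates of Heart infusion agar (pH 7.4) containing compound dilutions; 10^4-cell inoculum, from 10^6 cells/ml; lowest concentration preventing growth reported.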

[2] = system: Escherichia coli NIHJ; assay: MIC, plate method, standard strains; assay type: cell-based; details: Table 3, standard strain; unit assumed
Procedure, shortened: as §1

[3] = system: Staphylococcus aureus; assay: MIC against clinical isolates; assay type: cell-based; details: Table 5-1, clinical isolate; unit assumed
[4] = system: Proteus vulgaris; assay: MIC against clinical isolates; assay type: cell-based; details: Table 5-6, clinical isolate; unit assumed
[5] = system: Escherichia coli; assay: MIC against clinical isolates; assay type: cell-based; details: Table 5-2, clinical isolate; unit assumed
[6] = system: Klebsiella pneumoniae; assay: MIC against clinical isolates; assay type: cell-based; details: Table 5-4, clinical isolate; unit assumed
[7] = system: Pseudomonas aeruginosa; assay: MIC against clinical isolates; assay type: cell-based; details: unit assumed
[8] = system: Shigella flexneri; assay: MIC against clinical isolates; assay type: cell-based; details: Table 5-5, clinical isolate; unit assumed
Experimental: (§2) The minimum inhibitory concentration (MIC) was determined by the plate method disclosed in "Chemotherapy" (Japan), Vol. 16, (1968), pages 98-99. The culture medium used was a Heart infusion agar (pH 7.4). The number of the cells per plate used in the inoculum was 10^4 (10^6 cells/ml).
(§3) MIC was determined in the same manner as in the preceding paragraph (1).

[9] = system: Shigella sonnei; assay: MIC against clinical isolates; assay type: cell-based; details: Table 5-5, clinical isolate; unit assumed
Experimental: as §2, §3

[10] = system: β-lactamase, Pseudomonas aeruginosa GN 238; assay: Resistant activity against β-lactamase, iodometric assay; assay type: biochemical; details: β-lactamase from Pseudomonas aeruginosa GN 238; Potassium Penicillin G = 100
Experimental: (3) Resistant activity against β-lactamase, Pseudomonas aerugionsa GN 238:
The resistant activity of each compound against β-lactamase was measured in the manner described below.
β-Lactamase was prepared from Pseudomonas aeruginosa GN 238. This microorganism was cultured in 100 ml of a medium containing 2 g of yeast extract, 10 g of polypeptone, 2 g of glucose, 7 g of disodium hydrogen phosphate, 2 g of potassium dihydrogen phosphate, 1.2 g of ammonium sulfate and 0.4 g of magnesium sulfate, per liter, in a 500-ml Erlenmeyer flask for 6 hrs. at 37° C. with shaking. The resulting cells were collected by centrifugation (5,000 r.p.m.×10 min.), washed three times with 0.1 M phosphate buffer (pH 7.0). Subsequently, the cells were subjected to sonication (20 KHz, 20 min.) and then centrifuged at 15,000 r.p.m. for 60 min. By using the supernatant of enzyme fluid, the resistance of each compound against β-lactamase was determined by the iodometric assay method. Each numeral shown in Table 7 is a relative activity value calculated by assuming as 100 the activity of the control Potassium Penicillin G.

[11] = system: Salmonella typhi-murium; assay: MIC against clinical isolates; assay type: cell-based; details: Table 5-5, clinical isolate; unit assumed
[12] = system: Proteus mirabilis; assay: MIC against clinical isolates; assay type: cell-based; details: Table 5-6, clinical isolate; unit assumed
[13] = system: Proteus morganii; assay: MIC against clinical isolates; assay type: cell-based; details: Table 5-6, clinical isolate; unit assumed
[14] = system: Staphylococcus aureus 209p; assay: MIC, plate method, standard strains; assay type: cell-based; details: Table 3, standard strain, Heart infusion agar pH 7.4; unit assumed
Procedure, shortened: as §1

[15] = system: Klebsiella pneumoniae; assay: MIC, plate method, standard strains; assay type: cell-based; details: Table 3, standard strain; unit assumed
Procedure, shortened: as §1

SMILES	MIC Proteus vulgaris 3027 [1]	MIC Esche--richin coil NIHJ [2]	MIC Staphylococcus aureus F-2 [3]	MIC Staphylococcus aureus F-5 [3]	MIC Proteus vulgaris [4]	MIC Escherichia coli GN 3452 [5]	MIC Escherichia coli GN 3481 [5]	MIC Escherichia coli GN 3611 [5]	MIC Escherichia coli K-2 [5]	MIC Escherichia coli K-3 [5]	MIC Klebsiella pneumoniae GN 917 [6]	MIC Shigella flexneri JS 11215 [8]	MIC Shigella flexneri JS 11839 [8]	MIC Shigella sonnei JS 11232 [9]	MIC Shigella sonnei JS 11755 [9]	Relative activity (%), resistant activity against β-lactamase [10]	MIC Salmonella typhi-murium SL 2136 [11]	MIC Proteus mirabilis [12]	also measured
CCCCCN1CCN(C(=O)NC(C(=O)NC2C(=O)N3C2SC(C)(C)C3C(=O)O)c2ccccc2)C(=O)C1=O (single isomer, unassigned) [Compound 45]	0.4 µg/mL (≈ 0.715 µM)	< 0.1 µg/mL	1.57 µg/mL (≈ 2.81 µM)	> 200 µg/mL	< 0.4 µg/mL	1.57 µg/mL (≈ 2.81 µM)	1.57 µg/mL (≈ 2.81 µM)	> 200 µg/mL	1.57 µg/mL (≈ 2.81 µM)	200 µg/mL (≈ 357 µM)	1.57 µg/mL (≈ 2.81 µM)	25 µg/mL (≈ 44.7 µM)	1.57 µg/mL (≈ 2.81 µM)	25 µg/mL (≈ 44.7 µM)	1.57 µg/mL (≈ 2.81 µM)	16%	200 µg/mL (≈ 357 µM)	< 0.4 µg/mL	MIC Staphylococcus aureus F-3 [3]: 1.57 µg/mL (≈ 2.81 µM); MIC Pseudomonas aeruginosa GN 1035 ([7]; Table 5-3, clinical isolate): 50 µg/mL (≈ 89.3 µM); MIC Pseudomonas neruginosa S-3 ([7]; Table 5-4, clinical isolate): 50 µg/mL (≈ 89.3 µM)
CCCN1CCN(C(=O)NC(C(=O)NC2C(=O)N3C2SC(C)(C)C3C(=O)O)c2ccccc2)C(=O)C1=O (single isomer, unassigned) [Compound 38]	0.4 µg/mL (≈ 0.752 µM)	< 0.1 µg/mL	1.57 µg/mL (≈ 2.95 µM)	> 200 µg/mL	< 0.4 µg/mL	3.13 µg/mL (≈ 5.89 µM)	3.13 µg/mL (≈ 5.89 µM)	> 200 µg/mL	3.13 µg/mL (≈ 5.89 µM)	> 200 µg/mL	3.13 µg/mL (≈ 5.89 µM)	25 µg/mL (≈ 47 µM)	1.57 µg/mL (≈ 2.95 µM)	50 µg/mL (≈ 94.1 µM)	3.13 µg/mL (≈ 5.89 µM)	15%	200 µg/mL (≈ 376 µM)	< 0.4 µg/mL	MIC Proteus morganii [13]: < 0.4 µg/mL; MIC Staphylococcus aureus 209p [14]: 0.4 µg/mL (≈ 0.752 µM); MIC Klebsiella pneumoniae [15]: 3.13 µg/mL (≈ 5.89 µM); MIC Staphylococcus aureus MS 8588 [3]: 3.13 µg/mL (≈ 5.89 µM); MIC Staphylococcus aureus MS 8596 [3]: 3.13 µg/mL (≈ 5.89 µM); MIC Staphylococcus aureus MS 8684 [3]: 3.13 µg/mL (≈ 5.89 µM); MIC Escherichia coli GN 3465 [5]: 50 µg/mL (≈ 94.1 µM); MIC Escherichia coli K-1 [5]: 3.13 µg/mL (≈ 5.89 µM); MIC Klebsiella pneumoniae GN 4081 [6]: 50 µg/mL (≈ 94.1 µM); MIC Klebsiella pneumoniae GN 4117 [6]: 50 µg/mL (≈ 94.1 µM); MIC Pseudomonas aeruginosa GN 82 ([7]; Table 5-3, clinical isolate): 3.13 µg/mL (≈ 5.89 µM); MIC Pseudomonas aeruginosa GN 163 ([7]; Table 5-3, clinical isolate): 3.13 µg/mL (≈ 5.89 µM); MIC Pseudomonas aeruginosa GN 376 ([7]; Table 5-3, clinical isolate): 3.13 µg/mL (≈ 5.89 µM); MIC Pseudomonas aeruginosa GN 1091 ([7]; Table 5-3, clinical isolate): 3.13 µg/mL (≈ 5.89 µM)
